Columns and labels:
human D2 receptor = human D2 receptor (Homo sapiens (Human), UniProt P14416); experiment: Dopamine D2 receptor agonism, calcium mobilization assay; assay type: cell-based
Procedure: Dopamine D2 receptor agonism was measured using a calcium mobilization assay protocol developed by HD Biosciences (China). Briefly, HEK293/G15 cells expressing human D2 receptor were plated at a density of 15000 cells/well in clear-bottomed, Matrigel-coated 384-well plates and grown for 24 hrs at 37° C. in the presence of 5% CO2. The cells were incubated with calcium-sensitive fluorescent dye, Fluo8, for 60-90 minutes at 37° C. in the dark. Test compounds were prepared at 3-fold concentrated solution in 1×HBSS buffer with Ca^2+ and Mg^2+. Calcium Flux signal was immediately recorded after compounds were added from compound plate to cell plate at FLIPR (Molecular Devices). The fluorescence data were normalized to yield responses for no stimulation (buffer) and full stimulation (1 μM of dopamine) of 0% and 100% stimulation, respectively. Test compound potency (EC50) was estimated by nonlinear regression using the sigmoidal dose-response (variable slope) using Xlfit 4 (IDBS, Guildford, Surrey, UK, model 205). y=(A+((B−A)/(1+((C/x)^D)))) where y is the normalized ratio measurement for a given concentration of test compound, x is the concentration of test compound, A is the estimated efficacy at infinite compound dilution, and B is the maximal efficacy. C is the EC50 value and D is the Hill slope coefficient. EC50 estimates were obtained from independent experiment and the logarithmic average was calculated.

human 5-HT2B receptor = human 5-HT2B receptor (Homo sapiens (Human), UniProt P41595); experiment: 5-HT2B agonist activity assay (IP1 production, HTRF); assay type: cell-based
Procedure: Evaluation of the agonist activity of compounds (I), (Ia) and (Ib) at the human 5-HT2B receptor was performed by Eurofins/Cerep (France) measuring the compound effects on inositol monophosphate (IP1) production using the HTRF detection method. Briefly, the human 5-HT2B receptor was expressed in transfected CHO cells. The cells were suspended in a buffer containing 10 mM Hepes/NaOH (pH 7.4), 4.2 mM KCl, 146 mM NaCl, 1 mM CaCl2, 0.5 mM MgCl2, 5.5 mM glucose and 50 mM LiCl, then distributed in microplates at a density of 4100 cells/well and incubated for 30 min at 37° C. in the presence of buffer (basal control), test compound or reference agonist. For stimulated control measurement, separate assay wells contained 1 μM 5-HT. Following incubation, the cells were lysed and the fluorescence acceptor (fluorophen D2-labeled IP1) and fluorescence donor (anti-IP1 antibody labeled with europium cryptate) were added. After 60 min at room temperature, the fluorescence transfer was measured at lambda(Ex) 337 nm and lambda(Em) 620 and 665 nm using a microplate reader (Rubystar, BMG). The IP1 concentration was determined by dividing the signal measured at 665 nm by that measured at 620 nm (ratio). The results were expressed as a percent of the control response to 1 μM 5-HT. The standard reference agonist was 5-HT, which was tested in each experiment at several concentrations to generate a concentration-response curve from which its EC50 value is calculated as described above for dopamine functional assays.

[1] = PK experiments in rats: plasma compound (I) after oral dosing of prodrugs; assay type: in vivo, Han Wistar rats; settings: Wistar rats, FIG. 2, doses equal to 287 μg/kg of compound (I)
Procedure: Plasma was placed on water-ice following collection. Final storage at approximately −70° C.
Mobile phase B: Acetonitrile. […] Flow rate 0.5 mL/min.
The rats had unrestricted access to the diet.
Mobile phase B: Acetonitrile+0.2% formic acid. […] Flow rate 0.3 mL/min.
Han Wistar rats were supplied by Envigo, UK. […] The rats received a standard laboratory diet Teklad 2014C. The rats had unrestricted access to the diet.

human D1 receptor = human D1 receptor (Homo sapiens (Human), UniProt P21728); experiment: Dopamine D1 receptor agonism, HTRF cAMP assay; assay type: cell-based; settings: HEK-293 cells expressing human D1 receptor, cAMP
Procedure: Dopamine D1 receptor agonism was measured using a HTRF cAMP from CisBio using the protocol developed by HD Biosciences (China). Briefly, the assay is a homogeneous time resolved-fluorescence resonance energy transfer (HTRF) assay that measures production of cAMP by cells in a competitive immunoassay between native cAMP produced by cells and cAMP-labeled with XL-665. A cryptate-labeled anti-cAMP antibody visualizes the tracer. The assay was performed in accordance with instructions from manufacturer.
Test compounds were added to wells of microplates (384 format). HEK-293 cells expressing the human D1 receptor were plated at 1000 cells/well and incubated 30 min at room temperature. cAMP-d2 tracer was added to wells and followed by addition of Anti-cAMP antibody-cryptate preparation and incubated for 1 h at room temperature in dark. HTRF cAMP was measured by excitation of the donor with 337 nm laser (the “TRF light unit”) and subsequent (delay time 100 microseconds) measurement of cryptate and d2 emission at 615 nm and 665 nm over a time window of 200 microseconds with a 2000 microseconds time window between repeats/100 flashes). HRTF measurements were performed on an Envision microplate reader (PerkinElmer). The HTRF signal was calculated as the emission-ratio at 665 nm over 615 nm. The HTRF ratio readout for test compounds was normalized to 0% and 100% stimulation using control wells with DMSO-solvent or 30 uM dopamine. Test compound potency (EC50) was estimated by nonlinear regression using the sigmoidal dose-response (variable slope) using Xlfit 4 (IDBS, Guildford, Surrey, UK, model 205). y=(A+((B−A)/(1+((C/x)^D)))) where y is the normalized HTRF ratio measurement for a given concentration of test compound, x is the concentration of test compound, A is the estimated efficacy at infinite compound dilution, and B is the maximal efficacy. C is the EC50 value and D is the Hill slope coefficient. EC50 estimates were obtained from an independent experiment and the logarithmic average was calculated. Dopamine D2 Receptor Agonism

hepatocytes from human = experiment: Conversion to compound (I) in human hepatocytes; assay type: in vitro ADME; settings: 1 μg/mL, 37° C., 0.25-60 minutes, FIG. 7b
Procedure: (§1) The cell concentration at incubation was 1×10^6 viable cells/mL. The incubations were performed in glass tubes at 37° C. with a total incubation volume of 3.5 mL and with duplicate incubations for each test item. The 3.5 mL of hepatocyte suspension was equilibrated for 10 minutes in a water bath set to 37° C. where after the incubations were initiated by adding 3.5 μL of a stock solution of the test item in DMSO (Dimethyl sulfoxide) and gently inverting the tubes. The final solvent concentration in the incubations was 0.1% DMSO. Samples of 600 μL were withdrawn from the incubations at the pre-determined time points of 0.25, 5, 15, 30 and 60 minutes after ensuring homogeneity of hepatocyte suspensions. The withdrawn volume was added to 1 mL Nunc cryo tubes on wet ice containing 60 μL of ice cold ascorbic acid (100 mg/mL) and 30 μL of ice cold 100 mM saccharic acid 1.4-lactone in 0.5 M citric acid. The tubes were mixed and 35 μL of a solution of ice cold 20% formic acid was added. The tubes were mixed thoroughly and stored at −80° C. awaiting analysis. Analysis method and Instrumentation used for analysis of (I) from dosing (Id-ia), (Id-ib), (Id-iia) and (Id-iib), were the one described in Examples 4 and 5 below in the section “Instrumentation used for analysis of compound (I) from dosing of compounds (Ic), (Id-ia), (Id-ib), (Id-iia), (Id-iib), (Id-iab) and (Id-iiab).”
(§2) Analysis method and Instrumentation used for analysis of (I) from dosing (Id-iab) and (Id-iiab) consisted of mixing equal aliquots of the samples and precipitation solution (acetonitrile (MeCN) with 10% methanol (MeOH) and 1% formic acid), followed by centrifugation at 4° C. at 16000 g for 10 minutes. Supernatants were collected and analysed by LC-MS/MS. Mass spectrometer: Waters Acquity—Waters Xevo TQ-MS. Analytical column: Acquity UPLC HSS T3, 100×2.1 mm, 1.8 μm. Mobile phase A: 0.2% formic acid in water. Mobile phase B: 0.2% formic acid in acetonitrile. Gradient run from 95/5% to 60/40 in 5 min. Flow rate 0.3 mL/min. MRM monitoring of (I) in the study samples and in the analytical standards.

[2] = Conversion to compound (I) in fresh human blood; assay type: in vitro ADME; settings: fresh blood 37° C., 1 μg/mL, 0-60 minutes, FIG. 8b
Procedure: (§3) Conversion of (Id-ia), (Id-ib), (Id-iia) and (Id-iib) in human blood (average of 3 donors) and rat blood (average of 45 donors) to (I) was shown in fresh blood at 37° C. spiked with 1 μg/mL of (Id-ia), (Id-ib), (Id-iia) and (Id-iib) separately, (I) was measured at 0, 5, 15, 30 and 60 minutes in isolated plasma. Analysis method and Instrumentation as described in Examples 4 and 5 below in the section “Instrumentation used for analysis of compound (I) from dosing of compounds (Ic), (Id-ia), (Id-ib), (Id-iia), (Id-iib), (Id-iab) and (Id-iiab).”

[3] = Conversion to compound (I) in fresh rat blood; assay type: in vitro ADME; settings: fresh blood 37° C., 1 μg/mL, 0-60 minutes, FIG. 8a
Procedure: as §3

hepatocytes from rat = experiment: Conversion to compound (I) in rat hepatocytes; assay type: in vitro ADME; settings: 1 μg/mL, 37° C., 0.25-60 minutes, FIG. 7a
Procedure: as §1, §2

male CD rats = experiment: Rat locomotor activity (hyperactivity) assay, open field; assay type: in vivo; settings: for time until locomotor effect is gone: apomorphine: post administration, pramipexole: after appearance of effect, (Id-ia): recording ended at 415-minute time point
Procedure: In total, 206 male CD rats (Charles River, Germany) weighing 200-250 grams (165-190 grams upon arrival) were used in the study. Animals were housed at a standard temperature (22±1° C.) and in a light-controlled environment (lights on from 7 am to […]) with ad libitum access to food and water. The experiment described below was performed in accordance with the standard operating procedures of Charles River Discovery Research Services Finland Ltd. and in accordance with the national Animal Experiment Board of Finland (Eläinkoelautakunta, ELLA) authority on animal testing.
The test device is a square Plexiglass-arena (measuring 40×40×40 cm), in which the movement paths of the rats are recorded by an activity monitor (Med. Associates Inc.). Before the test period is initiated, rats are habituated to their test cage for 60 minutes. Upon completion of habituation, animals were treated with either compound or vehicle and placed back into the open field apparatus. The main test parameter measured is ambulatory distance (recorded in 5 minute segments). Overall time of measurement after receiving initial treatment was 360 minutes. Total follow up period in the study was 420 min, including 60 min of habituation.

Chain of human 5-HT2B receptor (P41595 whole entry): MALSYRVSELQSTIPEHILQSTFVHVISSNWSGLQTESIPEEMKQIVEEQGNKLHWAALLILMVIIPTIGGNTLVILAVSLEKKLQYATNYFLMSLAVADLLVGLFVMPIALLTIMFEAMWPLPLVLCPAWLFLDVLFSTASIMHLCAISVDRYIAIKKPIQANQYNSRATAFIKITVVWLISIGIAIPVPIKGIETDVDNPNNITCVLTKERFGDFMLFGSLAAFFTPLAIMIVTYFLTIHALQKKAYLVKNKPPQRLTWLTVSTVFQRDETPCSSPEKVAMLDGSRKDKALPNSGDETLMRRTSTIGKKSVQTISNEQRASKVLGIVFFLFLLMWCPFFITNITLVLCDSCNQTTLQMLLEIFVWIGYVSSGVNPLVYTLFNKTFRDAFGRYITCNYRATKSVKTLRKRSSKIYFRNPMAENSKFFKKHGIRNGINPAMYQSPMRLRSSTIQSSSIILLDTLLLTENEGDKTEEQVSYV
Chain of human D1 receptor (P21728 whole entry): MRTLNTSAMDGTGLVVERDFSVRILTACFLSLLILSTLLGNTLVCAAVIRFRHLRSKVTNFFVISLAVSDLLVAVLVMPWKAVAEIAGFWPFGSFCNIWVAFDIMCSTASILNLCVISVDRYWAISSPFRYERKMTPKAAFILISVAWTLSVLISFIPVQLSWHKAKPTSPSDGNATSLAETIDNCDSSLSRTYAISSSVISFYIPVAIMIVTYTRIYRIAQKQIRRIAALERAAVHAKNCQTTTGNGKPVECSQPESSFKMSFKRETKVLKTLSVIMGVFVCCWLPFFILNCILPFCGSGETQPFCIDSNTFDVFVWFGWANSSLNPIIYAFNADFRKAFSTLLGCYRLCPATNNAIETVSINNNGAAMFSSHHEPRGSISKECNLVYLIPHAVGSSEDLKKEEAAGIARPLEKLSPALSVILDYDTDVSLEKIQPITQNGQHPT
Chain of human D2 receptor (P14416 whole entry): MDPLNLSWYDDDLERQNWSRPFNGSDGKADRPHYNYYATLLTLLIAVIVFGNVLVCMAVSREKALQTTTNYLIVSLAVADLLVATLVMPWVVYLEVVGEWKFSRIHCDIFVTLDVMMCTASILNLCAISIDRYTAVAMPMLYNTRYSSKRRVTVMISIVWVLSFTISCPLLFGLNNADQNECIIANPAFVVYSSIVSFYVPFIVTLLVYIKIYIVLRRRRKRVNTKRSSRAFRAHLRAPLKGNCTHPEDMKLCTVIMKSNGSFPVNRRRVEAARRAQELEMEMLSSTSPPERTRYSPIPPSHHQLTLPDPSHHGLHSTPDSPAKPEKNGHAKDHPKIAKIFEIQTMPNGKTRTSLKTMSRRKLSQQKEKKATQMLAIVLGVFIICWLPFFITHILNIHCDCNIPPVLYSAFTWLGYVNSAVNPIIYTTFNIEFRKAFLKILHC

## CCCN1CCC[C@@H]2CC3=C(CCCC3=O)C[C@H]21 [(Ia), reference compound]
Human D2 receptor; HEK293/G15 cells expressing human D2 receptor, calcium flux
  EC50: > 1 µM
Human 5-HT2B receptor; @30 uM, percent of control response to 1 μM 5-HT
  5-HT2B agonist effect at concentration indicated: 58%
Human 5-HT2B receptor; CHO cells, IP1 production
  EC50: > 6 µM
[1]
  plasma profile of compound (I) after oral dosing (in words): early and high peak concentrations of compound (I)
Human D1 receptor
  EC50: > 1 µM

## CCCN1CCC[C@@H]2Cc3c(ccc4c3OCO4)C[C@H]21 [(Ib), reference compound]
Human D2 receptor; normalized to 1 μM dopamine = 100%
  Emax: 100%
Human 5-HT2B receptor; example 3
  5-HT2B agonism (in words): agonist of the 5-HT2B receptor
Human 5-HT2B receptor; read-out: 5-HT2B Emax
  Emax: 79%
[1]
  plasma profile of compound (I) after oral dosing (in words): early and high peak concentrations of compound (I)
Human D1 receptor
  EC50: > 1 µM

## CCCN1CCC[C@@H]2Cc3c(ccc(OC(=O)C(C)(C)C)c3OC(=O)C(C)(C)C)C[C@H]21 [(Ic), reference compound]
Human 5-HT2B receptor; @10 μM
  5-HT2B effect at concentration indicated (no asterisk): −5%@10
[1]
  plasma profile of compound (I) after oral dosing (in words): extremely low

## CCCN1CCC[C@@H]2Cc3c(ccc(O[C@@H]4O[C@H](C(=O)O)[C@@H](O)[C@H](O)[C@H]4O)c3O)C[C@H]21 [(Id-ib), (2S,3S,4S,5R,6S)-3,4,5-trihydroxy-6-(((4aR,10aR)-6-hydroxy-1-propyl-1,2,3,4,4a,5,10,10a-octahydrobenzo[g]quinolin-7-yl)oxy)tetrahydro-2H-pyran-2-carboxylic acid]
Hepatocytes from human
  conversion to compound (I) in human hepatocytes: time dependent conversion to compound (I)
[1]
  plasma profile of compound (I) after oral dosing (in words): slower absorption rate avoiding rapid peak concentrations accompanied by a sustained exposure of compound (I) in plasma
[2]
  conversion to compound (I) in human blood: time dependent conversion to compound (I)
[3]
  conversion to compound (I) in rat blood: time dependent conversion to compound (I)
Hepatocytes from rat
  conversion to compound (I) in rat hepatocytes: time dependent conversion to compound (I)

## CCCN[C@H]1CCc2nc(N)sc2C1 [Pramipexole, pramipexole, reference compound]
Male CD rats; FIG. 4, (Id-ia) p.o., apomorphine 3 mg/kg s.c., pramipexole 0.3 mg/kg s.c.
  total distance travelled vs vehicle: significantly increased activity
Male CD rats
  time until locomotor effect is gone: 2.5 h

## CN1CCc2cccc3c2[C@H]1Cc1ccc(O)c(O)c1-3 [apomorphine, reference compound]
Male CD rats
  time until locomotor effect is gone: 1.5 h

Source: patent US10729710B2, “Catecholamine prodrugs for use in the treatment of Parkinson's disease” (H. Lundbeck A/S, priority 2017, dated 2020)
